Assay results reported in PubChem BioAssay (NCI).
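Protocol summary: plate cells (96-well), add compound at 5 concentrations, incubate 48 h, interpolate endpoints linearly. GI50 marks 50% less growth. TGI: total growth inhibition.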

How the values were obtained:
Test in all cases: NCI tumour cell line growth inhibition, 48 h
[1] = test system: 786-0 renal
[2] = test system: A498 renal
[3] = test system: A549 NSCLC
[4] = test system: ACHN renal
[5] = test system: BT-549 breast
[6] = test system: CCRF-CEM leukemia
[7] = test system: COLO 205 colon
[8] = test system: EKVX NSCLC
[9] = test system: HCC-2998 colon
[10] = test system: HCT-116 colon
[11] = test system: HCT-15 colon
[12] = test system: HL-60(TB) leukemia
[13] = test system: HOP-62 NSCLC
[14] = test system: HOP-92 NSCLC
[15] = test system: HS 578T breast
[16] = test system: HT29 colon
[17] = test system: IGROV1 ovarian
[18] = test system: K-562 leukemia
[19] = test system: KM12 colon
[20] = test system: LOX IMVI melanoma
[21] = test system: M14 melanoma
[22] = test system: MALME-3M melanoma
[23] = test system: MCF7 breast
[24] = test system: MDA-MB-231 breast
[25] = test system: MDA-MB-435
[26] = test system: MOLT-4 leukemia
[27] = test system: NCI-H226 lung
[28] = test system: NCI-H23 lung
[29] = test system: NCI-H460 lung
[30] = test system: NCI-H522 lung
[31] = test system: NCI/ADR-RES ovarian
[32] = test system: OVCAR-3 ovarian
[33] = test system: OVCAR-4 ovarian
[34] = test system: OVCAR-5 ovarian
[35] = test system: OVCAR-8 ovarian
[36] = test system: PC-3 prostate
[37] = test system: RPMI-8226 leukemia
[38] = test system: RXF 393 renal
[39] = test system: SF-268 CNS
[40] = test system: SF-295 CNS
[41] = test system: SF-539 CNS
[42] = test system: SK-MEL-2 melanoma
[43] = test system: SK-MEL-28 melanoma
[44] = test system: SK-MEL-5 melanoma
[45] = test system: SK-OV-3 ovarian
[46] = test system: SN12C renal
[47] = test system: SNB-19 CNS
[48] = test system: SNB-75 CNS
[49] = test system: SR leukemia
[50] = test system: SW-620 colon
[51] = test system: T-47D breast
[52] = test system: TK-10 renal
[53] = test system: U251 CNS
[54] = test system: UACC-257 melanoma
[55] = test system: UACC-62 melanoma
[56] = test system: UO-31 renal

For `CC[C@H](C)[C@H]1NC(=O)[C@@H]([C@H](O)C(C)C)NC(=O)[C@@H](C)N(C)C(=O)[C@H](C)N(C)C(=O)[C@H](CC(C)C)NC(=O)[C@H](CC(C)C)N(C)C(=O)[C@H](C)N(C)C1=O`, the GI50 [1] was 267 nM, the TGI [1] was over 14300 nM and the GI50 [2] was 468 nM. For the same compound, the TGI [2] was 5330 nM, the GI50 [3] was 257 nM and the TGI [3] was over 14300 nM. For the same compound, the GI50 [4] was 401 nM, the TGI [4] was over 14300 nM and the GI50 [5] was 436 nM. It also gave a TGI [5] of 8460 nM, a GI50 [6] of 562 nM and a TGI [6] of over 14300 nM. For the same compound, the GI50 [7] was 278 nM, the TGI [7] was 4390 nM and the GI50 [8] was 341 nM. It also gave a TGI [8] of over 14300 nM, a GI50 [9] of 531 nM and a TGI [9] of over 14300 nM. It also gave a GI50 [10] of 198 nM, a TGI [10] of over 14300 nM and a GI50 [11] of 538 nM. It also gave a TGI [11] of over 14300 nM, a GI50 [12] of 995 nM and a TGI [12] of over 14300 nM. It also gave a GI50 [13] of 225 nM, a TGI [13] of 4260 nM and a GI50 [14] of 397 nM. For the same compound, the TGI [14] was 12100 nM, the GI50 [15] was 261 nM and the TGI [15] was 4750 nM. For the same compound, the GI50 [16] was 257 nM, the TGI [16] was over 14300 nM and the GI50 [17] was 276 nM. It also gave a TGI [17] of over 14300 nM, a GI50 [18] of 547 nM and a TGI [18] of over 14300 nM. It also gave a GI50 [19] of 326 nM, a TGI [19] of over 14300 nM and a GI50 [20] of 416 nM. The TGI [20] was over 14300 nM, the GI50 [21] was 274 nM and the TGI [21] was 3850 nM. The GI50 [22] was 286 nM, the TGI [22] was 10500 nM and the GI50 [23] was 192 nM. It also gave a TGI [23] of over 14300 nM, a GI50 [24] of 507 nM and a TGI [24] of over 14300 nM. The GI50 [25] was 376 nM, the TGI [25] was over 14300 nM and the GI50 [26] was 512 nM. It also gave a TGI [26] of over 14300 nM, a GI50 [27] of 456 nM and a TGI [27] of 12400 nM. For the same compound, the GI50 [28] was 272 nM, the TGI [28] was over 14300 nM and the GI50 [29] was 170 nM. For the same compound, the TGI [29] was 2240 nM, the GI50 [30] was 329 nM and the TGI [30] was 4700 nM. The GI50 [31] was 2300 nM, the TGI [31] was over 14300 nM and the GI50 [32] was 390 nM. The TGI [32] was over 14300 nM, the GI50 [33] was 409 nM and the TGI [33] was over 14300 nM. It also gave a GI50 [34] of 367 nM, a TGI [34] of 13300 nM and a GI50 [35] of 391 nM. It also gave a TGI [35] of over 14300 nM, a GI50 [36] of 364 nM and a TGI [36] of over 14300 nM. For the same compound, the GI50 [37] was 446 nM, the TGI [37] was 5970 nM and the GI50 [38] was 256 nM. For the same compound, the TGI [38] was 1900 nM, the GI50 [39] was 276 nM and the TGI [39] was over 14300 nM. The GI50 [40] was 319 nM, the TGI [40] was 9170 nM and the GI50 [41] was 409 nM. The TGI [41] was 4190 nM, the GI50 [42] was 233 nM and the TGI [42] was 1270 nM. It also gave a GI50 [43] of 223 nM, a TGI [43] of 1760 nM and a GI50 [44] of 516 nM. The TGI [44] was over 14300 nM, the GI50 [45] was 418 nM and the TGI [45] was 11100 nM. It also gave a GI50 [46] of 221 nM, a TGI [46] of over 14300 nM and a GI50 [47] of 266 nM. It also gave a TGI [47] of over 14300 nM, a GI50 [48] of 280 nM and a TGI [48] of over 14300 nM. For the same compound, the GI50 [49] was 526 nM, the TGI [49] was over 14300 nM and the GI50 [50] was 327 nM. For the same compound, the TGI [50] was over 14300 nM, the GI50 [51] was 164 nM and the TGI [51] was 1150 nM. For the same compound, the GI50 [52] was 276 nM, the TGI [52] was 9720 nM and the GI50 [53] was 265 nM. The TGI [53] was over 14300 nM, the GI50 [54] was 451 nM and the TGI [54] was over 14300 nM. The GI50 [55] was 331 nM, the TGI [55] was 4070 nM and the GI50 [56] was 383 nM. It also gave a TGI [56] of over 14300 nM.
